Results: patent US20260306377A1, “ANTIMICROBIAL COMPOSITIONS CONTAINING A CATIONIC ANTIMICROBIAL AND AN ACIDIC GLYCOLOPID” (LANXESS CORPORATION, priority 2023, published 2026)

The molecules below were run on mixed bacterial inoculum and mixed fungal inoculum (assay: challenge test, overall result (bacteria and fungi)). Details: anionic xanthan gum lotion dosed with the substance(s).
Type: cell-based
Method: Preservative activity in representative formulations was evaluated by using a modification of the Personal Care Products Council (PCPC) protocol (Machtiger, et al. 2001. Determination of the Efficacy of Preservation of Non-Eye Area Water Miscible Cosmetic and Toiletry Formulations: Collaborative Study. J of AOAC International. 84:1, 101-109). The evaluation was conducted using a four week, two-cycle microbial preservative efficacy test (challenge test) at 25° C. to determine the preservative efficacy of each treatment.
Xanthan gum is commonly used as a natural rheological modifier in personal care products. The formulation below was made by heating the aqueous (A) and oil (B) phases separately to 75-80° C. The oil phase was then poured into the aqueous phase and mixed by an overhead mixer and a homogenizer. The oil-in-water emulsion was cooled to room temperature. Sodium hydroxide solution was used to adjust the pH.
Lotion formulation samples were dosed with certain test materials as shown further below and mixed thoroughly at room temperature, and the formulation samples were divided into two separate aliquots of 5 gram each. One aliquot was inoculated with 50 μl of a diluted bacterial pool, the second aliquot was inoculated with 50 μl of a diluted fungal pool as described below. Unpreserved product samples were included in the test as a growth control.
A mixed bacterial inoculum was prepared using 24-hour cultures of the test bacteria (Table 2) grown in trypticase soy broth (TSB). Equal volumes of the bacterial test strains were combined and diluted one to ten in phosphate buffer to obtain an inoculum of approximately 5×10^7 to 5×10^8 colony forming units per ml (cfu/ml). The test samples were inoculated with 1% of the mixed bacterial inoculum. A mixed fungal inoculum was prepared using cell suspensions of the yeast Candida albicans ATCC #10231 and the mold Aspergillus brasiliensis ATCC #16404 in phosphate buffer. Equal volumes of the fungal test strains were combined and diluted one to ten with phosphate buffer to obtain an inoculum of approximately 5×10^6 to 5×10^7 cfu/ml. The test samples were inoculated with […] of the mixed fungal inoculum.
The samples were subjected to microbial challenge at time zero and inoculated a second time after seven days. The number of microorganisms added to each sample was determined by a standard Most Probable Number (MPN) determination in Trypticase Soy Broth (TSB) for bacteria and Potato Dextrose Broth (PDB) for fungi. Samples were incubated at 25° C. for the test duration of four weeks. Samples were monitored for bacterial and fungal contamination after 2, 7, 14, 21, and 28 days. Samples challenged with bacteria were streak-plated onto Trypticase Soy Agar (TSA) and incubated at 30° C. for 24 hours. Samples challenged with fungi were streak-plated onto Potato Dextrose Agar (PDA) and incubated at 25° C. for 7 days. After incubation, plates were given a Growth Rating to determine the colony forming units per gram (CFU/g) present in each test sample at the testing time point. As is used by various challenge test methods, the passing criteria is more stringent for bacteria than for fungi. […]
For bacteria challenge testing, a composition was scored as “Pass” if the composition obtained a growth rating score caused by bacteria of 1 or less at days 21-28 of the testing period and was scored as “Fail” if the composition obtained a growth rating score caused by bacteria of 2 or more at days 21-28 of the testing period. […]

SMILES | challenge test outcome (in words)
N=C(NCCCCCCNC(=N)NC(=N)Nc1ccc(Cl)cc1)NC(=N)Nc1ccc(Cl)cc1.O=C(O)[C@H](O)[C@@H](O)[C@H](O)[C@H](O)CO.O=C(O)[C@H](O)[C@@H](O)[C@H](O)[C@H](O)CO [CHD.G, Chlorhexidine digluconate] | none of the lotion formulations passed the challenge test
CCCCCCCC(=O)OCC(O)CO (centres unmarked) [GC, Glyceryl caprylate] | none of the lotion formulations passed the challenge test
CC(=O)c1ccc(O)cc1 [HAP, 4-Hydroxyacetophenone] | none of the lotion formulations passed the challenge test
CCCCCCCCCCCC(=O)N[C@@H](CCCN=C(N)N)C(=O)OCC.Cl [LAE, Ethyl lauroyl arginate HCl] | none of the lotion formulations passed the challenge test
O=C(O)c1ccccc1 [NaBz, Sodium benzoate] | none of the lotion formulations passed the challenge test
